The nature of data set [1]: HPLC analysis of neotame degradation during granulation. The conditions noted are these: roller compaction, cone mill, sieving. It is filed as physicochemical. An excerpt:
A lab scale TF-Mini roller compactor (Vector Corp., Marion, Iowa) was used in conjunction with a cone mill and a Ro-Tap testing sieve shaker (model B, CE Tyler Combustion Engineering, Inc., Mentor, Ohio) for testing and producing granulated neotame. The neotame powder flowed well into the feed hopper. […] The energy consumption of the rolls and feed screw were within the desired limits. The flakes were broken down into granular particles using a cone mill. The granulation was sieved to obtain a particle size that passed through 20 mesh and was retained on 60 mesh.

Data set [2] in a line: bulk density (loose), cup of known volume. It is filed as physicochemical. The conditions noted are these: Example 2; granulation through 20 mesh, retained on 60 mesh, versus initial powder. Here is the method:
In particular, bulk density (loose) was measured using a cup of known volume. The cup was filled with sample, excess was removed and the sample was weighed.

For `COC(=O)[C@H](Cc1ccccc1)NC(=O)[C@H](CC(=O)O)NCCC(C)(C)C` [neotame, N-[N-(3,3-dimethylbutyl)-L-α-aspartyl]-L-phenylalanine 1-methyl ester], in data set [1], the “degradation of neotame during granulation process” value is on record as “no degradation”. In data set [2], this compound gave a bulk density of 0.4 g/cc.

The values are drawn from patent US20020001652A1, “Process for making granulated N-[N- (3, 3-dimethylbutyl) -L-alpha -aspartyl] -L- phenylalanine 1-methyl ester” (priority 2000, published 2002).
